Results on 3 compounds are retold here after paper PMC9953308, “The Mechanism of Enantioselective Neurosteroid Actions on GABAA Receptors” (Biomolecules, 2023).

What is called EC50 is the concentration giving half of the maximal effect.

Test [1] addresses T1, α1β3 GABAA receptor (α1 subunit) (Homo sapiens, UniProt P14867).
T1 construct: gene GABRA1; human α1-8xHis-FLAG and human β3 GABAA receptor in HEK-T-Rex-293 membranes; with GABAA receptor β3 subunit (GABRB3)
T1 sequence (P14867 28-456): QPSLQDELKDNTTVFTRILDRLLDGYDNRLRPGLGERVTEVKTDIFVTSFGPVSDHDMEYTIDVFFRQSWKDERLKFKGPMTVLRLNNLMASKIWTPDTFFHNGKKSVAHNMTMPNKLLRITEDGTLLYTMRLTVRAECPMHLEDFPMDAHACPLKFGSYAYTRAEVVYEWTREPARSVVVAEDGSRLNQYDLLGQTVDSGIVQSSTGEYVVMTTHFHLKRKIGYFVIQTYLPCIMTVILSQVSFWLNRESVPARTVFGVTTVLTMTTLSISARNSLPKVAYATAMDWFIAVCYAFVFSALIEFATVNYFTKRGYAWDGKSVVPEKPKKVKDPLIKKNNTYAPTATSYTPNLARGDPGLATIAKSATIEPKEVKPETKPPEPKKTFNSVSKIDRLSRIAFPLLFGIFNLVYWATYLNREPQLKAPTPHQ
T1 sequence (P28472 26-473 partner): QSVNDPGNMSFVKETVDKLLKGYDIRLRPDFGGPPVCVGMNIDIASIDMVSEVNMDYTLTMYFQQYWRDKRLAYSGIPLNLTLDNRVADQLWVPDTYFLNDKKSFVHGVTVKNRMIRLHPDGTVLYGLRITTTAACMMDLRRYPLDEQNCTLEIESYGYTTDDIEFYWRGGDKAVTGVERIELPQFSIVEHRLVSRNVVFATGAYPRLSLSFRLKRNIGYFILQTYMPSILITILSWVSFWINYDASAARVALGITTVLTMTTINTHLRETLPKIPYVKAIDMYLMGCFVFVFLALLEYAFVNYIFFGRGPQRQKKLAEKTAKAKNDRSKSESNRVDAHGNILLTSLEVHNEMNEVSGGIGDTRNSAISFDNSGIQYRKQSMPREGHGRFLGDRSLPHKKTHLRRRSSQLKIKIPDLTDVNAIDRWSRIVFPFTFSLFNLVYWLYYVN
Nature of the test: photoaffinity labeling ([…]) with middle-down MS identification of adducted residue. The test is classed as binding.

Test [2] has as its target T2, α1β3 GABAA receptor (β3 subunit; β3-α1 intersubunit site) (Homo sapiens, UniProt P14867+P28472).
T2 construct: gene GABRB3; human α1-8xHis-FLAG and human β3 GABAA receptor in HEK-T-Rex-293 membranes; human α1β3 in Xenopus oocytes for EC50; with GABAA receptor α1 subunit (GABRA1)
T2 sequence (P28472 26-473): T1 sequence (P28472 26-473 partner)
T2 sequence (P14867 28-456): T1 sequence (P14867 28-456)
Description: competitive prevention of KK123 photolabeling with MS readout; EC50 from oocyte two-electrode voltage clamp (weak potentiation of GABA currents). The test is classed as cell-based.

Test [3] concerns the target T2, α1β3 GABAA receptor (β3 subunit; β3-α1 intersubunit site). Nature of the test: competitive prevention of KK200/KK123 photolabeling with MS readout; EC50 from oocyte two-electrode voltage clamp (potentiation of GABA currents). It counts as cell-based.

`C#CCCO[C@@H]1C[C@@]2(C)[C@@H]3CC[C@]4(C)[C@H](CC[C@H]4OC)[C@H]3CC3(N=N3)[C@@H]2C[C@H]1O` [KK152]: in test [1], the “photoaffinity labeling (30 μM) with middle-down MS identification of adducted re” value is given as “A fragmentation ion spectrum of this peptide identified Tyr415 as the site of KK152 adduction”. Turning to `CC(=O)[C@@H]1CC[C@@H]2[C@H]3CC[C@@H]4C[C@@H](O)CC[C@@]4(C)[C@@H]3CC[C@]21C` [ent-ALLO, ent-allopregnanolone], the EC50 in test [2] was 2000 ± 300 nM. On to `CC(=O)[C@H]1CC[C@H]2[C@@H]3CC[C@H]4C[C@H](O)CC[C@]4(C)[C@H]3CC[C@]12C` [ALLO, 3α-hydroxy-5α-pregnan-20-one], for which the EC50 in test [3] turned out to be 80 ± 10 nM.
